Assay [1] concerns colistin resistant mcr-1 (+) strains 6083655967, 6075066346 and mcr-1 (−) strain 7023446108. The experiment in a line: Time kill study. The class given is cell-based, E. coli. Conditions: in 2 hours. The procedure:
Time kill assay is used to determine the rate at which concentrations an antimicrobial agent kill a bacterial isolate. The bacterial suspension was adjusted to 10^6 to 10^7 CFU/mL with different concentrations of LC compounds and the antibiotics for comparison in separate tubes that incubated at 35° C. For synergy time kill: Two different antimicrobial agents which are antibiotic/LC compounds were added in an equal amount make a final volume to 1 mL (e.g: 500 μL of Antibiotic: 500 μL of LC compound) and subsequently 1 mL of prepared bacteria suspension were added into the same tube. Aliquots of 100 μL samples will be withdrawn at different time intervals (0, 1, 2, 4, 8, 24 hours) and were plated on Mueller Hinton Agar (MHA) upon set of serial dilutions. Subsequently, after 24 and 48 hours, all the plates were checked for bacteria growth and the colonies were calculated for colony-forming unit (CFU/mL) numeration and the time kill curve plotted with logarithm of the viable count against time. The results from various concentrations of antibiotics and control were plotted.
To understand the action of the combinations of LC100 with colistin, time kill experiments using the inventive combination in three colistin resistant strains, including two mcr-1(+) and one mcr-1(−) strains, were carried out.

Another assay has as its system mcr-1 bacterial membrane. Kind of assay: Ethidium bromide (EtBr) fluorescence, membrane disruption. The class given is cell-based. The following applies: mcr-1 bacteria; in words. The procedure:
However, EtBr is membrane impermeable, which means that it can only enter the bacterial cell and bind to DNA and emit fluorescence only when both the bacterial outer and inner membranes are perturbed. […] It is also possible that LC100 may have other targets. One possible target is the MCR-1 protein. To understand the interaction of LC100 and the MCR-1 protein, the fluorescence of MCR-1 protein in the presence of different concentration of LC100 was measured. MCR-1 protein contains several tryptophan residues, and autofluoresces at 323 nm.

Assay [2] relates to ACBA multi-drug resistant strains. Kind of assay: MIC against multi-drug resistant strains (Table 5). Conditions: alone. The class given is cell-based, Acinetobacter baumannii. The procedure:
MIC experiments of the antimicrobial agents were determined by a modified broth microdilution method in accordance with the Clinical and Laboratory Standards Institute (CLSI) guidelines using 96 well culture plates. In brief, serial dilutions of all plates were prepared at different concentrations (μg). The inoculum suspension was prepared by adding isolated colonies from a 18-20 hours on TSA plate into phosphate buffer (0.31 mM, pH 7.2) or in water for injection (BBraun) and adjusting the suspension to a turbidity equivalent to 0.5 McFarland Standard. Each well contained a final bacterial concentration of approximately 5×10^5 colony forming units (CFU)/mL. The plate was covered and incubated at 35° C. for 24 hours. […] For the microdilution plates, turbidity in wells can be measured at OD600 using TECAN infinite M200Pro. MIC was determined as […] concentration that gives a 99 percent inhibition.

Converted amounts (≈) assume the structure as drawn. Where only a bound is given, the exact number is not on record here.

Consider `CCN(CC)CCCCOc1ccc(/C=C/C(=O)c2ccc(OCCCCN(CC)CC)c(CC=C(C)C)c2O)cc1` [LC100], for which, in assay [1] (⅛ MIC of colistin in the presence of 10 μg/ml of LC100), the “log reduction in time kill” value was found to be 3 log. In addition, in the assay with mcr-1 bacterial membrane, the EtBr fluorescence result is on record as “slight fluorescence”. Moreover, the MIC is 25 µg/mL (≈ 43.2 µM) in assay [2] (strain ACBA 1010), 50 µg/mL (≈ 86.4 µM) in assay [2] (strain ACBA 1012), 50 µg/mL (≈ 86.4 µM) in assay [2] (strain ACBA 43357) and above 50 µg/mL in assay [2] (strain ACBA ATCC 19606).
Consider Colistin, for which, in assay [1] (colistin at concentrations equal or above the MIC), the “log reduction in time kill” value was 3 log. For the same compound, the EtBr fluorescence result with mcr-1 bacterial membrane is on record as “slight fluorescence”. In addition, the MIC in assay [2] (strain ACBA 1010) is 0.78 µg/mL; in assay [2] (strain ACBA 1012) it was 0.78 µg/mL; in assay [2] (strain ACBA 43357), 3.125 µg/mL; in assay [2] (strain ACBA ATCC 19606), 1.56 µg/mL.

As usually defined, the MIC is the lowest concentration found to suppress growth.
